The test system of the test is HL-1 cardiomyocytes, H2O2 protection, ATPLite, 2 h. Kind of test: protection of HL-1 cells from peroxide death, SAR follow-up, hydrogen peroxide, ATP luminescence (AID 623872).

pIC50: −log10 of the molar value. Calls of active or inactive are those of the source.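 The calls were made as follows: active = IC50 at or below 20 µM in the dose response; inactive = the rest.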 Bounds are passed on as bounds.

As for `COc1cccc(NC(=O)CN(C)C(=O)c2cc(-c3cccs3)nn2-c2ccccc2)c1`, the IC50 was > 79 µM (inactive).
Regarding `COc1ccc2c(c1OC)C(=O)N1c3ccccc3C(=O)N(c3ccccc3C)C21` (stereo not given), the IC50 was > 79 µM (inactive).
With `Cc1ccc2cc(CN(Cc3cccnc3)S(=O)(=O)c3ccc(F)cc3)c(=O)[nH]c2c1`, the IC50 is > 79 µM (inactive).
With `COc1ccccc1N1C(=O)c2ccccc2N2C(=O)c3c(ccc(OC)c3OC)C12` (stereo not given), the IC50 was 77.1 µM (inactive).
Consider `CC(C)CCNC(=O)C(c1ccc(O)cc1)N(C(=O)c1snc(C(N)=O)c1N)c1ccccc1F` (stereo not given), for which the IC50 is > 79 µM (inactive).
Still for that read-out and setting: the value for `CCCN(CC(=O)Nc1ccccc1OC)C(=O)c1cc(-c2cccs2)nn1-c1ccccc1` was > 79 µM (inactive); that for `COCCn1c(SC(C(=O)Nc2cc(C)ccc2C)c2ccccc2)nc2ccccc2c1=O` (stereo not given) was > 79 µM (inactive).
The same measure, in the same setting: the value for `COc1ccc(-c2cc(C(=O)Nc3ccccc3)c3ccccc3n2)cc1OC` was > 79 µM (inactive).
In the case of `COc1cc(-c2cc(C(=O)Nc3cccc(C(C)=O)c3)c3ccccc3n2)cc(OC)c1OC`, the pIC50 was 5.68.
Take `O=C(C(=O)N1CCCC1)c1c(-c2ccccc2)[nH]c2ccccc12`: the IC50 was > 79 µM (inactive).
In the case of `COc1ccc(NC(=O)CN(C)C(=O)c2cc(-c3cccs3)nn2-c2ccccc2)cc1`, the IC50 was > 79 µM (inactive).
Consider `COc1ccc(-n2cc(-c3ccccc3)c3c(NCc4ccccc4)ncnc32)cc1`, for which the IC50 was > 79 µM (inactive).
On to `CCN(CC)C(=O)C(=O)c1c(-c2ccccc2)[nH]c2ccccc12`, for which the IC50 is > 79 µM (inactive).
Same read-out and setting: the value for `Cc1ccc(C)c(S(=O)(=O)N2CCN(C(=O)c3cc4cc(C)ccc4nc3C)CC2)c1` was > 79 µM (inactive); that for `O=C(C(=O)N1CCCCC1)c1c(-c2ccccc2)[nH]c2ccccc12` was > 79 µM (inactive); that for `COc1ccc(S(=O)(=O)N(Cc2cccnc2)Cc2cc3ccccc3[nH]c2=O)cc1` was > 79 µM (inactive).
Regarding `COc1ccc2c(=O)c(C(=O)N3CCN(S(=O)(=O)c4c(C)cc(C)cc4C)CC3)c[nH]c2c1`, the IC50 was > 79 µM (inactive).
`COCCNC(=O)C(c1ccc(O)cc1)N(C(=O)c1snc(C(N)=O)c1N)c1ccccc1F` (stereo not given): the IC50 was > 79 µM (inactive).
Regarding `COc1ccc(-n2cc(-c3ccccc3)c3c(N4CCCCC4)ncnc32)cc1`, the IC50 is > 79 µM (inactive).
Consider `CCCn1c(SC(C(=O)Nc2cccc(OC)c2)c2ccccc2)nc2ccccc2c1=O` (stereo not given), for which the IC50 is > 79 µM (inactive).
With `O=C1c2ccccc2N2C(=O)c3ccccc3[C@H]2N1c1ccccc1`, the IC50 was > 79 µM (inactive).
As to `COc1ccc(-c2cc(C(=O)N(C)Cc3ccc(OC)c(OC)c3OC)c3ccccc3n2)cc1OC`, the IC50 is > 79 µM (inactive).
Regarding `CCN(CC)S(=O)(=O)c1cc(C(=O)N2CCN(Cc3cccc4cccnc34)CC2)ccc1C`, the IC50 is > 79 µM (inactive).
Still for that read-out and setting: the value for `Cc1ccc(NC(=O)CN(C)C(=O)c2cc(-c3cccs3)nn2-c2ccccc2)cc1` was > 79 µM (inactive); that for `Cc1ccc(S(=O)(=O)N2CCN(C(=O)c3cc(=O)[nH]c4ccccc34)CC2)cc1C` was > 79 µM (inactive); that for `COc1ccc2c(c1OC)C(=O)N1c3ccccc3C(=O)N(c3ccc(F)cc3)C21` (stereo not given) was 35.6 µM (inactive).
Consider `NC(=O)c1nsc(C(=O)N(Cc2ccccc2)C(C(=O)NCc2ccc(F)cc2)c2ccc(O)cc2)c1N` (stereo not given), for which the IC50 is > 79 µM (inactive).
Take `COc1ccc(-c2cc(C(=O)N(C)C)c3ccccc3n2)cc1OC`: the IC50 is > 79 µM (inactive).
For `Cc1ccc(-c2[nH]c3ccccc3c2C(=O)C(=O)N(C)C)cc1`, the IC50 was > 79 µM (inactive).
Turning to `COc1cccc(NC(=O)C(Sc2nc3ccccc3c(=O)n2CC(C)C)c2ccccc2)c1` (stereo not given), the IC50 was > 79 µM (inactive).
The same measure, in the same setting: the value for `O=c1[nH]c2ccccc2cc1CN(Cc1ccco1)S(=O)(=O)c1ccc(F)cc1` was > 79 µM (inactive); that for `Cc1ccccc1N(C(=O)c1snc(C(N)=O)c1N)C(C(=O)NCc1ccc(F)cc1)c1ccc(O)cc1` (stereo not given) was > 79 µM (inactive).
Consider `COc1cccc(CN(C)C(=O)c2cc(-c3ccc(OC)c(OC)c3)nc3ccccc23)c1`, for which the IC50 is > 79 µM (inactive).
For `CCN(CC(=O)Nc1ccc(OC)cc1)C(=O)c1cc(-c2cccs2)nn1-c1ccccc1`, the IC50 was > 79 µM (inactive).
In the case of `COc1cccc(CN(C)C(=O)c2cc(-c3ccccc3)nc3ccc(C)cc23)c1OC`, the IC50 was > 79 µM (inactive).
With `Cc1ccc(S(=O)(=O)N(Cc2cccnc2)Cc2cc3ccccc3[nH]c2=O)cc1`, the IC50 is > 79 µM (inactive).
Take `COc1ccc2cc(C(=O)N3CCN(S(=O)(=O)c4ccc(C)cc4C)CC3)c(C)nc2c1`: the IC50 is > 79 µM (inactive).
With `COc1ccc(-c2cc(C(=O)NCc3ccco3)c3ccccc3n2)cc1OC`, the IC50 is > 79 µM (inactive).
Same read-out and setting: the value for `NC(=O)c1nsc(C(=O)N(c2cccc(F)c2)C(C(=O)NC2CCCC2)c2ccc(O)cc2)c1N` (stereo not given) was > 79 µM (inactive); that for `Cc1ccc2cc(CN(C)S(=O)(=O)c3ccc(F)cc3)c(=O)[nH]c2c1` was > 79 µM (inactive).
In the case of `COc1ccc2cc(C(=O)N3CCN(S(=O)(=O)c4cc(C)ccc4C)CC3)c(C)nc2c1`, the IC50 was > 79 µM (inactive).
With `COc1ccc(-c2cc(C(=O)NCc3ccccc3)c3ccccc3n2)cc1OC`, the IC50 was > 79 µM (inactive).
As to `COc1ccc2c(c1OC)C(=O)N1c3ccccc3C(=O)N(c3cccc(Br)c3)C21` (stereo not given), the pIC50 is 5.72.
Take `COc1ccc(-n2cc(-c3ccccc3)c3c(N4CCCC4)ncnc32)cc1`: the IC50 is > 79 µM (inactive).
As to `COc1ccc(N2C(=O)c3ccccc3N3C(=O)c4c(ccc(OC)c4OC)C23)cc1` (stereo not given), the IC50 is > 79 µM (inactive).

In general, IC50 refers to the point on the concentration scale where inhibition reaches its midpoint. One may read the pIC50 as −log10 of the IC50, conventionally taken in molar units.

Values taken from PubChem BioAssay AID623872 (Sanford-Burnham Center for Chemical Genomics, 2012).
